Tests used:
[1] = molecular target: Cholinesterase (Equus caballus, UniProt P81908)
Description: Inhibition of equine serum BChE using butyrylthiocholine iodide as substrate preincubated for 5 mins followed by substrate addition measured every minute for 10 mins by Ellman's method

[2] = molecular target: T1, Acetylcholinesterase (Homo sapiens, UniProt P22303); assay: Inhibition of human erythrocyte AChE using acetylthiocholine iodide as substrate preincubated for 5 mins followed by substrate addition measured every minute for 10 mins by Ellman's method
[3] = Selectivity index, ratio of IC50 for equine serum BChE to IC50 for human erythrocyte AChE
[4] = Effective permeability of compound at 100 uM at pH 7.4 by PAMPA; assay type: ADME; details: read-out: Peff
[5] = Half life in 2% riboflavine solution in PBS at 25 uM by HPLC-UV analysis; assay type: physicochemical
[6] = molecular target: T1, Acetylcholinesterase; assay: Inhibition of human erythrocyte AChE using acetylthiocholine iodide as substrate at 10 uM preincubated for 5 mins followed by substrate addition measured every minute for 10 mins by Ellman's method relative to control
[7] = molecular target: Cholinesterase (Equus caballus) (UniProt P81908); assay: Inhibition of equine serum BChE using butyrylthiocholine iodide as substrate at 10 uM preincubated for 5 mins followed by substrate addition measured every minute for 10 mins by Ellman's method relative to control
[8] = in vitro; details: PAMPA, pH 7.4

Chain of Cholinesterase (P81908 whole entry): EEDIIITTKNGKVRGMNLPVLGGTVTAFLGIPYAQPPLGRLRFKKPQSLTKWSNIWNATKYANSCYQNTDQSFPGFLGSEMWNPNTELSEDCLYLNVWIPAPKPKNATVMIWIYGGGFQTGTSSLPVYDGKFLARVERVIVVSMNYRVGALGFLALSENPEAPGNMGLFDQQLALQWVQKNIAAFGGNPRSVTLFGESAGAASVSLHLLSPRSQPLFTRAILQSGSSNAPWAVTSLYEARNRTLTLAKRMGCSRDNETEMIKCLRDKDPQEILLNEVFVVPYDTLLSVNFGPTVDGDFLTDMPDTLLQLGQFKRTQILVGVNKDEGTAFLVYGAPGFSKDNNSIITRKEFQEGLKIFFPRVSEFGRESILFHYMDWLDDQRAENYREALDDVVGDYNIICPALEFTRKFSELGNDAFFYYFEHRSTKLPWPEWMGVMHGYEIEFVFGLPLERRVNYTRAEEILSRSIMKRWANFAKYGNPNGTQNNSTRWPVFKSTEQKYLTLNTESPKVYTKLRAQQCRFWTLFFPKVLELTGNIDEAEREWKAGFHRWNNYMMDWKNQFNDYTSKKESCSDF
T1 sequence (P22303 whole entry): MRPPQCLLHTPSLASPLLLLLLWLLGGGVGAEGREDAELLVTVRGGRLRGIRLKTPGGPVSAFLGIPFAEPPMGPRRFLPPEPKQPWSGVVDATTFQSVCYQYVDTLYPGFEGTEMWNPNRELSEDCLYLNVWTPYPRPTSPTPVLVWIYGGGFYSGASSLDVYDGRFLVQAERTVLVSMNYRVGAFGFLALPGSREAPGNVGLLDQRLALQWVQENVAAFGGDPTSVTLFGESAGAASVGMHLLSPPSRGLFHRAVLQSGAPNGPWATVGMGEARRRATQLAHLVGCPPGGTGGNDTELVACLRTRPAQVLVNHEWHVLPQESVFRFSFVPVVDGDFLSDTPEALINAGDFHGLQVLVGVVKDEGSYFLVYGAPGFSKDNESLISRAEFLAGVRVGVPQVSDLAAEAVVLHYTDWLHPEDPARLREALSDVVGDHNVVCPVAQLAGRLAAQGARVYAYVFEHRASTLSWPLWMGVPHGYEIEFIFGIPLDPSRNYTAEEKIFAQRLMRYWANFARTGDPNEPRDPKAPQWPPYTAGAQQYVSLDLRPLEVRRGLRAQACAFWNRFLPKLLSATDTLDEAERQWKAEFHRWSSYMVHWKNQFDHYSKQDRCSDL
Chain of Cholinesterase (Equus caballus) (P81908 whole entry): as the sequence (P81908 whole entry) above

SMILES	IC50 [1]	IC50 [2]	Ratio IC50 [3]	other results
COc1cc2c(cc1OC)C(=O)C(CC1C=CN(Cc3ccccc3)C=C1C(C)=O)CC2 (stereo in doubt; 24a-D)	9.07 µM	0.924 µM		
COc1ccc2c(c1)CCC(CC1C=CN(Cc3ccccc3F)C=C1C(C)=O)C2=O (centres undefined)		> 10 µM		
COc1ccc(C(=O)CCc2cc[n+](Cc3cccc(Cl)c3)cc2C(C)=O)cc1OC	3.2 µM	0.144 µM	22.2	
CC(=O)c1c[n+](Cc2cccc(Cl)c2)ccc1CC1Cc2cc(O)ccc2C1=O (centres undefined)	> 10 µM	0.116 µM		
COc1cc2c(cc1OC)C(=O)C(Cc1cc[n+](Cc3nc4ccccc4o3)cc1C(N)=O)C2 (centres undefined)	> 10 µM	9.27 µM		
COc1cc2c(cc1OC)C(=O)C(Cc1cc[n+](Cc3ccc(S(N)(=O)=O)cc3)cc1C(N)=O)C2 (centres undefined)	> 10 µM	> 10 µM		
COc1ccc2c(c1)CCC(Cc1cc[n+](Cc3ccccc3Cl)cc1C(C)=O)C2=O (centres undefined)		0.0295 µM	8.6	
COc1ccc2c(c1)CCC(CC1C=CN(Cc3ccc(C)cc3)C=C1C(C)=O)C2=O (centres undefined)	> 10 µM	> 10 µM		
COc1ccc2c(c1)CCC(Cc1cc[n+](Cc3ccccc3C)cc1C(N)=O)C2=O (centres undefined)	9.11 µM	0.894 µM	10.2	
CNC(=O)c1c[n+](Cc2ccccc2C)ccc1CC1CCc2cc(OC)ccc2C1=O (centres undefined)	2.51 µM	> 10 µM		
COc1ccc2c(c1)CCC(CC1C=CN(Cc3ccc(Cl)cc3)C=C1C(C)=O)C2=O (centres undefined)	> 10 µM	> 10 µM		
COc1ccc(C(=O)CCc2cc[n+](Cc3cccc(F)c3)cc2C#N)cc1OC	> 10 µM	0.011 µM		
COc1ccc(C(=O)CCc2cc[n+](Cc3ccc(Cl)cc3)cc2C#N)cc1OC	> 10 µM	> 10 µM		
COc1ccc(C(=O)CCC2C=CN(Cc3cccc(Cl)c3)C=C2C#N)cc1OC (centres undefined)	> 10 µM	0.923 µM		Papp at 100 µM [4]: 15.1 ×10⁻⁶ cm/s
COc1cc2c(cc1OC)C(=O)C(CC1C=CN(Cc3cccc(Cl)c3)C=C1C(N)=O)C2 (stereo in doubt; 23h-A)	14.3 µM	5.34 µM		half-life at 25 µM ([5]; 2% riboflavine solution in PBS): 24.6 min
COC(=O)c1ccccc1C[n+]1ccc(CC2Cc3cc(OC)c(OC)cc3C2=O)c(C(=O)Oc2c(Cl)cc(Cl)cc2Cl)c1 (centres undefined)	0.373 µM	0.0693 µM	5.38	
COc1ccc2c(c1)CCC(Cc1cc[n+](Cc3cccc(F)c3)cc1C(C)=O)C2=O (centres undefined)			7.5	
COc1cc2c(cc1OC)C(=O)C(CCCc1cc[n+](Cc3cccc(Cl)c3)cc1C(N)=O)C2 (centres undefined)	3.26 µM	> 10 µM		
COc1cc2c(cc1OC)C(=O)C(CC1C=CN(Cc3ccccc3)C=C1C(C)=O)CC2 (centres undefined) [listing 1 of 2 here]				Papp at 100 µM [4]: 20.4 ×10⁻⁶ cm/s
COc1ccc2c(c1)CCC(Cc1cc[n+](Cc3ccccc3Cl)cc1C(N)=O)C2=O (centres undefined)	2.64 µM	0.379 µM	6.9	
COc1cc2c(cc1OC)C(=O)C(CC1C=CN(Cc3ccccc3)C=C1C(C)=O)CC2 (stereo in doubt; 24a-B)	1.83 µM	0.286 µM		

SMILES	IC50 [1]	IC50 [2]	Ratio IC50 [3]	other results
CCC[n+]1ccc(CC2CCc3cc(OC)ccc3C2=O)c(C(C)=O)c1 (centres undefined)	> 10 µM	> 10 µM		
COc1ccc2c(c1)CCC(Cc1cc[n+](Cc3ccccc3F)cc1C(C)=O)C2=O (centres undefined)			11	
COc1ccc2c(c1)CCC(CC1C=CN(Cc3ccccc3C)C=C1C(N)=O)C2=O (centres undefined)	> 10 µM	> 10 µM		Papp at 100 µM [4]: 18.8 ×10⁻⁶ cm/s
CC(=O)c1c[n+](Cc2ccccc2C)ccc1CC1Cc2cc(OCC(F)(F)F)ccc2C1=O (centres undefined)	4.15 µM	0.0371 µM	112	
COc1ccc2c(c1)CCC(CC1C=CN(Cc3cccc(C(F)(F)F)c3)C=C1C(C)=O)C2=O (centres undefined)	> 10 µM	> 10 µM		
COc1cc2c(cc1OC)C(=O)C(Cc1cc[n+](Cc3cccc(O)c3)cc1C(N)=O)C2 (centres undefined)	5.36 µM	> 10 µM		
COc1ccc2c(c1)CCC(Cc1cc[n+](Cc3ccc(Cl)cc3)cc1C(C)=O)C2=O (centres undefined)			10.7	
COc1cc2c(cc1OC)C(=O)C(CC1C=CN(Cc3cccc(Cl)c3)C=C1C(N)=O)C2 (centres undefined)				inhibition [6]: 29%; inhibition [7]: 6%
COc1cc2c(cc1OC)C(=O)C(Cc1cc[n+](Cc3ccccc3)cc1Br)C2 (centres undefined)			4970	
COc1ccc(C(=O)CCc2cc[n+](Cc3ccccc3C(F)(F)F)cc2C#N)cc1OC		0.275 µM		
CC(=O)c1c[n+](Cc2cccc(Cl)c2)ccc1CC1Cc2cc(F)ccc2C1=O (centres undefined)		> 10 µM		
COc1cc2c(cc1OC)C(=O)C(Cc1cc[n+](CCc3ccccc3)cc1C(N)=O)C2 (centres undefined)	> 10 µM	0.896 µM		
COc1ccc(C(=O)CCCCc2cc[n+](Cc3cccc(Cl)c3)cc2C(N)=O)cc1OC	> 10 µM	> 10 µM		
COc1cc2c(cc1OC)C(=O)C(CC1C=CN(Cc3cccc(Cl)c3)C=C1C(N)=O)C2 (stereo in doubt; 23h-B)	19.9 µM	27 µM		t1/2 ([5]; buffer, 25 µM): 17.7 min
COc1ccc2c(c1)CCC(Cc1cc[n+](Cc3cccc(C)c3)cc1Br)C2=O (centres undefined)			40	
Cn1c(=O)c2[nH]cnc2n(C)c1=O.O [THEOPHYLLINE]				Papp at 250 µM [8]: 0.4 to 0.66 ×10⁻⁶ cm/s
COc1ccc2c(c1)CCC(Cc1cc[n+](Cc3cccc(Cl)c3)cc1C(C)=O)C2=O (centres undefined)			6.9	
COC(=O)C1=CN(Cc2cccc(Cl)c2)C=CC1CCC(=O)c1ccc(OC)c(OC)c1 (centres undefined)	> 10 µM	> 10 µM		
COc1ccc2c(c1)CCC(CC1C=CN(Cc3ccccc3Cl)C=C1C(C)=O)C2=O (centres undefined)		> 10 µM		Papp at 100 µM [4]: 21.2 ×10⁻⁶ cm/s
COc1ccc(C(=O)CCC2C=CN(Cc3cccc(Cl)c3)C=C2C(C)=O)cc1OC (centres undefined)	> 10 µM	> 10 µM		Papp at 100 µM [4]: 18.2 ×10⁻⁶ cm/s
COc1cc2c(cc1OC)C(=O)C(Cc1cc[n+](Cc3cccc(Cl)c3)cc1C(=O)O)C2 (centres undefined)	> 10 µM	> 10 µM		

SMILES	IC50 [1]	IC50 [2]	Ratio IC50 [3]	other results
COc1ccc2c(c1)CCC(Cc1cc[n+](Cc3ccccc3C)cc1C(C)=O)C2=O (centres undefined)			43.3	
COc1cc2c(cc1OC)C(=O)C(CC1C=CN(Cc3ccccc3)C=C1C(C)=O)CC2 (stereo in doubt; 24a-C)	1.67 µM	0.173 µM		
COc1cc2c(cc1OC)C(=O)C(Cc1cc[n+](Cc3cccc(Cl)c3)cc1C(C)=O)CC2 (centres undefined)		0.021 µM		
COc1cc2c(cc1O)C(=O)C(Cc1cc[n+](Cc3cccc(Cl)c3)cc1C(C)=O)C2 (centres undefined)	> 10 µM	0.0027 µM		
C[C@]12CCC(=O)C=C1CC[C@@H]1[C@@H]2C(=O)C[C@@]2(C)[C@H]1CC[C@]2(O)C(=O)CO [CORTISONE]				Papp at 100 µM [4]: 16.8 to 20.3 ×10⁻⁶ cm/s
COc1ccc2c(c1)CCC(Cc1cc[n+](Cc3cccc(C)c3)cc1C(C)=O)C2=O (centres undefined)			5.3	
COc1ccc2c(c1)CCC(CC1C=CN(Cc3cccc(F)c3)C=C1C(C)=O)C2=O (centres undefined)		> 10 µM		
COC(=O)c1c[n+](Cc2cccc(Cl)c2)ccc1CCC(=O)c1ccc(OC)c(OC)c1	2.03 µM	0.171 µM		
COc1ccc2c(c1)CCC(Cc1cc[n+](CC3CCCCC3)cc1C(C)=O)C2=O (centres undefined)	0.341 µM	0.21 µM	1.6	
COc1ccc2c(c1)CCC(Cc1cc[n+](Cc3ccc(C)cc3)cc1C(C)=O)C2=O (centres undefined)			7.4	
COc1ccc(C(=O)CCC2C=CN(Cc3cccc(Cl)c3)C=C2C(N)=O)cc1OC (centres undefined)	> 10 µM	> 10 µM		Papp at 100 µM [4]: 18.9 ×10⁻⁶ cm/s
CC(=O)C1=CN(Cc2cccc(Cl)c2)C=CC1CC1Cc2cc(F)ccc2C1=O (centres undefined)	> 10 µM	> 10 µM		
COc1cc2c(cc1OC)C(=O)C(CC1C=CN(Cc3ccccc3C)C=C1C(C)=O)C2 (centres undefined)				Papp at 100 µM [4]: 19.1 ×10⁻⁶ cm/s
COc1ccc2c(c1)CCC(Cc1cc[n+](Cc3cccc(C(F)(F)F)c3)cc1C(C)=O)C2=O (centres undefined)			18	
COc1cc2c(cc1OC)C(=O)C(Cc1cc[n+](Cc3cccc(C)n3)cc1C(N)=O)C2 (centres undefined)	> 10 µM	1.86 µM		
COc1cc2c(cc1OC)C(=O)C(CC1C=CN(Cc3ccccc3)C=C1C(C)=O)CC2 (centres undefined) [listing 2 of 2 here]				inhibition [6]: 36%; inhibition [7]: 45%
COc1ccc2c(c1)CCC(Cc1cc[n+](Cc3ccccc3C)cc1C(F)(F)F)C2=O (centres undefined)	2.24 µM	0.242 µM	9.2	
COc1ccc(C(=O)CCc2cc[n+](Cc3cccc(Cl)c3)cc2C#N)cc1OC	4.24 µM	0.0222 µM	191	
COc1ccc(C(=O)CCc2cc[n+](Cc3cccc(Cl)c3)cc2C(N)=O)cc1OC	> 10 µM	> 10 µM		
COc1ccc(C(=O)CCc2cc[n+](Cc3cccc(Cl)c3)cc2C(=O)O)cc1OC		0.0181 µM		
COc1ccc2c(c1)CCC(CC1C=CN(Cc3cccc(C)c3)C=C1C(C)=O)C2=O (centres undefined)		> 10 µM		

From ChEMBL document CHEMBL4145472, “Novel donepezil-like N-benzylpyridinium salt derivatives as AChE inhibitors and their corresponding dihydropyridine "bio-oxidizable" prodrugs: Synthesis, biological evaluation and structure-activity relationship” (Eur J Med Chem, 2018)
